According to patent publication US10265132B2, “Antimicrobial elastomeric articles” (ALLEGIANCE CORPORATION, priority 2012, dated 2019):

Tests used:
[1] = tested on: broad spectrum of microbes; test: Minimum concentration of CHG on coated glove needed for 4 log efficacy in 5 minutes; settings: 5 minutes exposure, E. coli and MRSA
Procedure: (§1) The formulation fabrication and coating application were the same as described in Example 1. The concentration of the active component, CHG, was varied in the formulation. These formulations were then applied to the gloves and the concentration of CHG needed on the coated glove in order to achieve at least 4 log efficacy was measured. The concentration of CHG was measured using UV-Visible spectroscopy with the assistance of a sodium hypobromite indicator. CHG was extracted from the glove using water and the unknown concentration was calculated versus a predetermined standard curve. The antimicrobial efficacy after an exposure time of 5 minutes was determined against E. coli and MRSA.

MRSA = test: Antimicrobial activity (log reduction) of coated gloves against MRSA, 5 minute exposure time; parameters: species or system methicillin-resistant Staphylococcus aureus
Procedure: (§2) Antimicrobial Activity: The antimicrobial activity of sample 1-1 was tested before and after aging against E. coli and MRSA with a 5 minute exposure time:
(§3) The coating composition and formulation fabrication remained the same as describe in Example 1. Sample 2-1 describes coated gloves that were stored in desiccated environments (described above in Example 1) before and after the application of the antimicrobial coating. Samples 2-2 and 2-3 represent coated gloves that were pre- and post-conditioned (using the technique described above in Example 1), respectively. Sample 2-4 describes coated gloves that were not desiccated before or after application of the antimicrobial coating. Samples 2-1 through 2-4 were tested before and after conditioning against E. coli and MRSA with a 5 minute exposure time.
The coating composition, formulation fabrication, and coating application method remained the same as described in Example 1. Antimicrobial gloves were packed into two packaging prototypes. The prototypes contained the antimicrobial coated gloves and the prototypes were subjected to outside conditions meant to simulated real world conditions experienced by medical glove products. Sample 4-1 is a control glove that was not packaged. Sample 4-2 is a packaging prototype comprised of Amcor aluminum foil laminate packaging containing antimicrobial-coated gloves and desiccant. […]
as §1, with “The concentration of the active component, CHG, was varied in the formulation.” left out

E. coli = test: Antimicrobial activity (log reduction) of coated gloves against E. coli, 5 minute exposure time
Procedure: as §2, §3
The coating composition, formulation fabrication, and coating application method remained the same as described in Example 1, Sample 3-1 describes antimicrobial-coated gloves that were exposed to 23° C. with a relative humidity of 45%. Sample 3-2 describes antimicrobial-coated gloves that were exposed to 23° C. with a relative humidity of 55%. Sample 3-3 describes antimicrobial-coated gloves that were exposed to 23° C. with a relative humidity of 75%. All samples were tested after one and two weeks exposure to the temperature and humidity levels. Antimicrobial efficacy was recorded against E. coli after a 5 minute exposure time. […]
as §1, with “The concentration of the active component, CHG, was varied in the formulation.” left out

[2] = CHG concentration on glove 2.09 μg/cm^2, 5 minutes exposure
[3] = CHG concentration on glove 7.63 μg/cm^2, 5 minutes exposure
[4] = CHG concentration on glove 11.90 μg/cm^2, 5 minutes exposure

## N=C(NCCCCCCNC(=N)NC(=N)Nc1ccc(Cl)cc1)NC(=N)Nc1ccc(Cl)cc1.O=C(O)[C@H](O)[C@@H](O)[C@H](O)[C@H](O)CO.O=C(O)[C@H](O)[C@@H](O)[C@H](O)[C@H](O)CO [CHG, chlorhexidine digluconate]
[1]
  CHG needed to offer 4 log antimicrobial efficacy: about 7.6 μg
MRSA; [2]
  Log Reduction MRSA: 3.08 log
MRSA; [3]
  Log Reduction MRSA: 4.16 log
MRSA; [4]
  Log Reduction MRSA: 4.06 log
E. coli; [2]
  Log Reduction E. coli: 1.67 log
E. coli; [3]
  Log Reduction E. coli: 4.18 log
E. coli; [4]
  Log Reduction E. coli: 4.72 log
